Measured values published in PubChem BioAssay AID330 (DTP/NCI, 2004).
Values joined by “and” are separate entries in the source; they are usually repeats but may differ in a detail not shown here. Equal entries are not always repeated. Toxic doses and inconclusive results are not listed. How the source made its calls: active means survival T/C of 150% or more; inactive means T/C below 125% in these data.

System: P388 leukemia ip, CD2F1 mice, survival T/C
Experiment: NCI In Vivo Anticancer Drug Screen. Data for tumor model P388 Leukemia (intraperitoneal) in CD2F1 (CDF1) mice
Details: endpoint: median survival time, higher = longer survival
Method in brief: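 Mice carrying the transplanted tumor received test compound or vehicle. Survival was recorded in each group, and the value is the treated-group measurement divided by that of the vehicle-treated control group.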

[1] = dose: 60.0 mg/kg/injection, schedule: Q01DX005 (ip), vehicle: Klucel (hydroxypropylcellulose) (HPC)
[2] = dose: 120.0 mg/kg/injection, schedule: Q01DX005 (ip), vehicle: Klucel (hydroxypropylcellulose) (HPC)
[3] = dose: 240.0 mg/kg/injection, schedule: Q01DX005 (ip), vehicle: Klucel (hydroxypropylcellulose) (HPC)
[4] = dose: 50.0 mg/kg/injection, schedule: Q01DX005 (ip), vehicle: Klucel (hydroxypropylcellulose) (HPC)
[5] = dose: 100.0 mg/kg/injection, schedule: Q01DX005 (ip), vehicle: Klucel (hydroxypropylcellulose) (HPC)
[6] = dose: 200.0 mg/kg/injection, schedule: Q01DX005 (ip), vehicle: Klucel (hydroxypropylcellulose) (HPC)

Measured: T/C

O=c1[nH]cccc1[N+](=O)[O-]
inactive: dose: 100.0 mg/kg/injection, schedule: Q04DX003 (ip), vehicle: saline with Tween-80 100 % of control | dose: 200.0 mg/kg/injection, schedule: Q04DX003 (ip), vehicle: saline with Tween-80 100 % of control | dose: 400.0 mg/kg/injection, schedule: Q04DX003 (ip), vehicle: saline with Tween-80 109 % of control | dose: 600.0 mg/kg/injection, schedule: Q01DX009 (ip), vehicle: saline 90 % of control and 93 % of control

O=C1NCCN1c1cccc([N+](=O)[O-])c1
inactive: dose: 12.5 mg/kg/injection, schedule: Q01DX009 (ip), vehicle: saline sonified 90 % of control | dose: 25.0 mg/kg/injection, schedule: Q01DX009 (ip), vehicle: saline sonified 100 % of control | dose: 50.0 mg/kg/injection, schedule: Q01DX009 (ip), vehicle: saline sonified 90 % of control

O=C1C(Br)=C(c2ccccc2)S(=O)(=O)c2ccccc21
inactive: [1] 109 % of control | [2] 114 % of control | [3] 114 % of control

CCC1(C)CC(=O)NC(=O)C1
inactive: dose: 2.5 mg/kg/injection, schedule: Q01DX009 (ip), vehicle: saline with Tween-80 95 % of control | dose: 5.0 mg/kg/injection, schedule: Q01DX009 (ip), vehicle: saline with Tween-80 95 % of control | dose: 10.0 mg/kg/injection, schedule: Q01DX009 (ip), vehicle: saline with Tween-80 86 % of control

Cc1nc2ccc(N(C)C)cc2c2c1Cc1c(C)nc3ccc(N(C)C)cc3c1O2
inactive: dose: 60.0 mg/kg/injection, schedule: Q01DX005 (ip), vehicle: saline with Tween-80 88 % of control | dose: 120.0 mg/kg/injection, schedule: Q01DX005 (ip), vehicle: saline with Tween-80 88 % of control | dose: 240.0 mg/kg/injection, schedule: Q01DX005 (ip), vehicle: saline with Tween-80 94 % of control

CCCCSP(Oc1ccccc1)SCCCC
inactive: dose: 25.0 mg/kg/injection, schedule: Q04DX003 (ip), vehicle: Klucel (hydroxypropylcellulose) (HPC) 100 % of control | dose: 50.0 mg/kg/injection, schedule: Q04DX003 (ip), vehicle: Klucel (hydroxypropylcellulose) (HPC) 108 % of control | dose: 100.0 mg/kg/injection, schedule: Q04DX003 (ip), vehicle: Klucel (hydroxypropylcellulose) (HPC) 109 % of control

NC(=S)NC12CC3CC(CC(C3)C1)C2
inactive: dose: 50.0 mg/kg/injection, schedule: Q04DX002 (ip), vehicle: saline with Tween-80 99 % of control | dose: 100.0 mg/kg/injection, schedule: Q04DX002 (ip), vehicle: saline with Tween-80 98 % of control | dose: 200.0 mg/kg/injection, schedule: Q04DX002 (ip), vehicle: saline with Tween-80 98 % of control

CCCn1c(Cl)c(/C=N\Nc2ccccc2[N+](=O)[O-])c2ccccc21
inactive: dose: 100.0 mg/kg/injection, schedule: Q01DX001 (ip), vehicle: saline with Tween-80 92 % of control | dose: 200.0 mg/kg/injection, schedule: Q01DX001 (ip), vehicle: saline with Tween-80 92 % of control | dose: 400.0 mg/kg/injection, schedule: Q01DX001 (ip), vehicle: saline with Tween-80 93 % of control

Cc1cn(C2CC(O)C(CO)O2)c(=O)[nH]c1=O (stereo not given)
inactive: dose: 16.0 mg/kg/injection, schedule: Q01DX009 (ip), vehicle: saline 100 % of control and 105 % of control | dose: 32.0 mg/kg/injection, schedule: Q01DX009 (ip), vehicle: saline with Tween-80 109 % of control | dose: 64.0 mg/kg/injection, schedule: Q01DX009 (ip), vehicle: saline with Tween-80 101 % of control | dose: 128.0 mg/kg/injection, schedule: Q01DX009 (ip), vehicle: saline with Tween-80 101 % of control | dose: 150.0 mg/kg/injection, schedule: Q02HX012 (ip), vehicle: saline 96 % of control | dose: 150.0 mg/kg/injection, schedule: Q04DX012 (ip), vehicle: saline 104 % of control | dose: 200.0 mg/kg/injection, schedule: Q02HX012 (ip), vehicle: saline 98 % of control | dose: 200.0 mg/kg/injection, schedule: Q04DX012 (ip), vehicle: saline 102 % of control | dose: 250.0 mg/kg/injection, schedule: Q01DX001 (ip), vehicle: saline 98 % of control | dose: 250.0 mg/kg/injection, schedule: Q01DX009 (ip), vehicle: saline 100 % of control | dose: 256.0 mg/kg/injection, schedule: Q01DX009 (ip), vehicle: saline with Tween-80 89 % of control | dose: 300.0 mg/kg/injection, schedule: Q02HX012 (ip), vehicle: saline 101 % of control | dose: 300.0 mg/kg/injection, schedule: Q04DX012 (ip), vehicle: saline 100 % of control | dose: 375.0 mg/kg/injection, schedule: Q01DX009 (ip), vehicle: saline 107 % of control and 95 % of control | dose: 400.0 mg/kg/injection, schedule: Q02HX012 (ip), vehicle: saline 109 % of control | dose: 400.0 mg/kg/injection, schedule: Q04DX012 (ip), vehicle: saline 105 % of control | dose: 500.0 mg/kg/injection, schedule: Q01DX001 (ip), vehicle: saline 98 % of control | dose: 512.0 mg/kg/injection, schedule: Q01DX009 (ip), vehicle: saline with Tween-80 108 % of control | dose: 512.0 mg/kg/injection, schedule: Q01DX009 (ip), vehicle: saline 99 % of control and 102 % of control | dose: 600.0 mg/kg/injection, schedule: Q02HX012 (ip), vehicle: saline 108 % of control | dose: 600.0 mg/kg/injection, schedule: Q04DX012 (ip), vehicle: saline 102 % of control | dose: 750.0 mg/kg/injection, schedule: Q01DX009 (ip), vehicle: saline 115 % of control and 97 % of control | dose: 1000.0 mg/kg/injection, schedule: Q01DX009 (ip), vehicle: saline 101 % of control and 103 % of control and 110 % of control | dose: 1500.0 mg/kg/injection, schedule: Q01DX009 (ip), vehicle: saline 108 % of control

CCC1(c2ccccc2)C(=O)c2ccccc2C1=O
inactive: dose: 100.0 mg/kg/injection, schedule: Q04DX002 (ip), vehicle: saline 101 % of control | dose: 200.0 mg/kg/injection, schedule: Q04DX002 (ip), vehicle: saline 102 % of control | dose: 400.0 mg/kg/injection, schedule: Q04DX002 (ip), vehicle: saline 105 % of control

CC(CC(=O)O)C(C(=O)O)C(=O)O (stereo not given)
inactive: dose: 50.0 mg/kg/injection, schedule: Q01DX005 (ip), vehicle: saline 104 % of control | dose: 100.0 mg/kg/injection, schedule: Q01DX005 (ip), vehicle: saline 101 % of control

NC(=O)NCCSC1(SCCNC(N)=O)CCCCC1
inactive: dose: 50.0 mg/kg/injection, schedule: Q01DX009 (ip), vehicle: Klucel (hydroxypropylcellulose) (HPC) 107 % of control | dose: 100.0 mg/kg/injection, schedule: Q01DX009 (ip), vehicle: Klucel (hydroxypropylcellulose) (HPC) 103 % of control | dose: 200.0 mg/kg/injection, schedule: Q01DX009 (ip), vehicle: Klucel (hydroxypropylcellulose) (HPC) 100 % of control | dose: 400.0 mg/kg/injection, schedule: Q01DX009 (ip), vehicle: Klucel (hydroxypropylcellulose) (HPC) 99 % of control

c1ccc(-c2cc3nncc(-c4ccccc4)n3n2)cc1
inactive: [4] 107 % of control | [5] 105 % of control | [6] 96 % of control

CCCCCC(C)N (stereo not given)
inactive: dose: 12.5 mg/kg/injection, schedule: Q01DX009 (ip), vehicle: saline 95 % of control | dose: 25.0 mg/kg/injection, schedule: Q01DX009 (ip), vehicle: saline 90 % of control

O=C1C(O)=C(O)C(=O)c2cc3c(cc21)OCO3
inactive: [1] 98 % of control | [2] 102 % of control | [3] 102 % of control

COc1cccc(-c2nnc(-c3nc[nH]c3C)o2)c1
inactive: dose: 100.0 mg/kg/injection, schedule: Q04DX002 (ip), vehicle: Klucel (hydroxypropylcellulose) (HPC) 100 % of control | dose: 200.0 mg/kg/injection, schedule: Q04DX002 (ip), vehicle: Klucel (hydroxypropylcellulose) (HPC) 95 % of control

CC(=O)OC(OC(C)=O)c1cc(Cl)c(C(OC(C)=O)OC(C)=O)cc1Cl
inactive: [1] 107 % of control | [2] 106 % of control | [3] 103 % of control

CC(=O)Nc1ccc(S(=O)(=O)n2c(=O)oc3ccc(Br)cc32)cc1
inactive: [4] 98 % of control | [5] 100 % of control | [6] 99 % of control

CS(=O)(=O)C(CCC(=O)c1ccc2ccccc2c1)C(=O)c1ccccc1 (stereo not given)
inactive: [4] 88 % of control | [5] 89 % of control | [6] 92 % of control

CS(=O)(=O)/N=C/N(CCc1ccccc1)c1ccccc1
inactive: [1] 101 % of control | [2] 99 % of control | [3] 99 % of control
